Measured values from ChEMBL document CHEMBL1147797, “Construction of human ghrelin receptor (hGHS-R1a) model using a fragmental prediction approach and validation through docking analysis” (J Med Chem, 2006).
pEC50: −log10 of the molar value.

Molecular target: Growth hormone secretagogue receptor type 1 (Homo sapiens, UniProt Q92847)
Assay: Activity at human GHS-R1a receptor in rat pituitary cells assessed as GH release
Type: cell-based, Pituitary gland cell

Growth hormone secretagogue receptor type 1, sequence (Q92847 whole entry): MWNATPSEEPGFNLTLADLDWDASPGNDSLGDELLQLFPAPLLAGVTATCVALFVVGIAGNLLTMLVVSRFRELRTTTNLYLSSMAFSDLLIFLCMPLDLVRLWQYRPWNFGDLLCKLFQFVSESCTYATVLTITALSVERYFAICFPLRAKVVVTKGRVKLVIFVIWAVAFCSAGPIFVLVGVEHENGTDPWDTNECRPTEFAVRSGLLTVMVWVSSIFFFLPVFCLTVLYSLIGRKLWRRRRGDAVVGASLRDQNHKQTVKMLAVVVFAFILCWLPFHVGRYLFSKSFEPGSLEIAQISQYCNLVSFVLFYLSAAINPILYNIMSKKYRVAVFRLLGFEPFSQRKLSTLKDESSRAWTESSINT

Row | SMILES | pEC50
1 | CC(C)(N)C(=O)N[C@H](COCc1ccccc1)C(=O)N1CCC2(CC1)COc1ccccc12 | 8.07
2 | CC(C)(N)C(=O)N[C@H](COCc1ccccc1)C(=O)N1CCC2(CC1)CSc1ccccc12 | 8.00
3 | CC(C)(N)C(=O)N[C@H](COCc1ccccc1)C(=O)N1CCC2(CC1)C[S+]([O-])c1ccccc12 (stereo partly drawn) | 8.07
4 | CCNC(=O)NCc1ccccc1-c1ccc(CN2C(=O)[C@H](NC(=O)C(C)(C)N)CCc3ccccc32)cc1 | 8.22
5 | CN(CCc1cccs1)C(=O)[C@@H](Cc1ccc2ccccc2c1)N(C)C(=O)/C=C/CC(C)(C)N | 8.12
6 | CC(C)(N)C(=O)N[C@H](CCCc1ccccc1)C(=O)N1CCC2(CCc3ccccc32)CC1 | 8.00
7 | CC(C)(N)C(=O)N[C@H](Cc1c[nH]c2ccccc12)C(=O)N1CCC2(CC1)CSc1ccccc12 | 8.25
8 | CC(C)(N)C(=O)N[C@H](Cc1c[nH]c2ccccc12)C(=O)N1CCC2(CCc3ccccc32)CC1 [L-162752] | 7.85
9 | CC(C)(N)C(=O)N[C@H](CCc1ccccc1)C(=O)N1CCC2(CCc3ccccc32)CC1 | 7.66
10 | CN(CCc1ccccc1NS(C)(=O)=O)C(=O)[C@@H](Cc1ccc2ccccc2c1)N(C)C(=O)/C=C/CC(C)(C)N | 7.74
11 | CC(C)(N)C(=O)N[C@H](CCc1ccccc1)C(=O)N1CCC2(CC1)CS(=O)(=O)c1ccccc12 | 8.22
12 | CC(C)(N)C(=O)N[C@H](CCc1ccccc1)C(=O)N1CCC2(CC1)CSc1ccccc12 | 7.24
13 | CC(C)(N)C(=O)N[C@H](COCc1ccccc1)C(=O)N1CCC2(CCc3ccccc32)CC1 | 7.77
14 | CNC(C)(C)C/C=C/C(=O)N(C)[C@H](Cc1ccc2ccccc2c1)C(=O)N(C)CCc1ccccc1OCCO | 8.30

The remaining compounds from weak to strong by pEC50, led by results:

Row | pEC50 | SMILES
15 | 8.30 | CC(C)(N)C(=O)N[C@H](COCc1ccccc1)C(=O)N1CCC2(CC1)CS(=O)(=O)c1ccccc12
16 | 8.30 | CN(CCc1cccs1)C(=O)[C@@H](Cc1ccc(-c2ccccc2)cc1)N(C)C(=O)/C=C/CC(C)(C)N
17 | 8.30 | CN(CCc1ccccc1OCCO)C(=O)[C@@H](Cc1ccc2ccccc2c1)N(C)C(=O)/C=C/CC(C)(C)N
18 | 8.32 | CC(C)(N)C(=O)N[C@H](CCCc1ccccc1)C(=O)N1CCC2(CC1)CSc1ccccc12
19 | 8.40 | CCN1N=C2CCN(C(=O)[C@@H](COCc3ccccc3)NC(=O)C(C)(C)N)C[C@]2(Cc2ccccc2)C1=O
20 | 8.52 | CNC(=O)[C@@H](Cc1ccccc1)N(C)C(=O)[C@@H](Cc1ccc2ccccc2c1)N(C)C(=O)/C=C/CC(C)(C)N [TABIMORELIN]
21 | 8.52 | CC(C)(N)C(=O)N[C@H](COCc1ccccc1)C(=O)N1CCC2=NNC(=O)[C@@]2(Cc2ccccc2)C1
22 | 8.52 | CNC(C)(C)C/C=C/C(=O)N(C)[C@H](Cc1ccc2ccccc2c1)C(=O)N(C)Cc1ccccc1
23 | 8.52 | CN1N=C2CCN(C(=O)[C@@H](COCc3ccccc3)NC(=O)C(C)(C)N)C[C@]2(Cc2ccccc2)C1=O
24 | 8.57 | CC(C)(N)C(=O)N[C@H](CCCc1ccccc1)C(=O)N1CCC2(CC1)COc1ccccc12
25 | 8.60 | CC(C)(N)C(=O)N[C@H](CCCc1ccccc1)C(=O)N1CCC2(CC1)C[S+]([O-])c1ccccc12 (stereo partly drawn)
26 | 8.68 | CC(C)(N)C(=O)N[C@H](Cc1c[nH]c2ccccc12)C(=O)N1CCC2(CC1)CS(=O)(=O)c1ccccc12
27 | 8.70 | CC(C)(N)C(=O)N[C@@H]1CCc2ccccc2N(Cc2ccc(-c3ccccc3CNC(=O)NCCO)cc2)C1=O
28 | 8.80 | CCOC(=O)[C@@]1(Cc2ccccc2)CCCN(C(=O)[C@@H](Cc2c[nH]c3ccccc23)NC(=O)C(C)(C)N)C1
29 | 8.96 | CC(C)(N)C(=O)N[C@H](CCCc1ccccc1)C(=O)N1CCC2(CC1)CS(=O)(=O)c1ccccc12
30 | 9.00 | CNC(=O)NCc1ccccc1-c1ccc(CN2C(=O)[C@H](NC(=O)C(C)(C)N)CCc3ccccc32)cc1
31 | 9.10 | CNC(C)(C)C/C=C/C(=O)N(C)[C@H](Cc1ccc2ccccc2c1)C(=O)N(C)CCc1cccs1
32 | 9.10 | CCNC(=O)[C@@]1(Cc2ccccc2)CCCN(C(=O)[C@@H](Cc2c[nH]c3ccccc23)NC(=O)C(C)(C)N)C1
33 | 9.22 | CC(C)(N)C(=O)N[C@H](Cc1c[nH]c2ccccc12)C(=O)N1CCC2(CC1)C[C@@H](O)c1ccccc12
